Assay results reported in US20220155322A1, “USE OF NATRIURETIC PEPTIDES TO ASSESS AND TREAT ACUTE KIDNEY INJURY” (Mayo Foundation for Medical Education and Research, priority 2019, published 2022).
Positions of bridges follow the written chain, without caps; N, C: chain ends. Residues, ends and D or L forms follow the SMILES beside them.

What was measured:
[1] = system: ischemic AKI model in normal mongrel canines; test: CNP levels (RIA) and renal NPPC mRNA (RT-PCR) in canine AKI; assay type: in vivo
[2] = system: ischemic AKI model in normal mongrel canines; test: Ischemic AKI in canines: hormonal and renal function; assay type: in vivo, canine
[3] = system: human primary renal proximal tubular epithelial cells (HRPTC); test: Oil immersion induced hypoxia/reoxygenation (H/R) apoptosis, Caspase 3/7 IncuCyte live imaging; assay type: cell-based; parameters: apoptotic signals in HRPTC after H/R: dose or concentration left out as unconfirmed
Protocol: Oil Immersion Induced Hypoxia/Reoxygenation in vitro: HRPTC (ScienCell Research Laboratories; Carlsbad, Calif.) were seeded in 96-well plates and cultured for 1 day until 70-80% confluence. Passages 3-5 were used for experiments. Caspase 3/7 green apoptosis assay agent (Essen BioScience; Ann Arbor, Mich.) was added to the culture medium for detection of apoptosis. Plates were then transferred to a time-lapsed, live imaging system IncuCyte (Essen BioScience) for apoptosis monitoring for a total of 24 hours. H/R in cells was mimicked with mineral oil (Sigma, St Louis, Mo.) immersion (Meldrum et al., J Surg Res, 99:288-293, 2001). Cells were immersed in oil for 2 hours, washed twice, and placed in fresh medium containing vehicle (H/R group) or drugs. ANP, BNP, and CRRL269 were used at concentrations of 10^−8, 10^−7, or 10^−6 M. PKG (an important cGMP binding protein) activating analogue 8-pCPT-cGMP (Sigma; St. Louis, Mo.), which is specific for PKG and has low affinity for phosphodiesterases, was used at concentrations of 10^−6, 10^−5, or 10^−4 M. Cells were treated with 10^−6-, 5×10^−6-, or 1.5×10^−5 M PKG inhibitor KT-5823 (Abcam; Cambridge, Mass.) for 30 minutes before 10^−6 M CRRL269 was added. Cells without H/R stimulation were labeled as the negative control (Neg Ctrl) group. Apoptosis signals (e.g., apoptosis object counts) were analyzed with software provided by IncuCyte.

[4] = system: apoptosis pathway genes in HRPTC; test: Apoptosis pathway PCR array in H/R HRPTC; assay type: cell-based, human
Protocol: (§1) Apoptosis Pathway PCR Array and Caspase7 Real Time PCR: Two groups of HRPTC (vehicle and 10^−6 M CRRL269) that underwent oil induced H/R, and a negative control (Neg Ctrl) group with no H/R stress, were cultured in 6-well plates as described above, and total RNA was collected using the Trizol method (Thermo Fisher Scientific; Waltham, Mass.). RNA was reverse transcribed for cDNA for PCR RT2 array experiments. Apoptosis pathway PCR array (Qiagen; Germantown, Md.) was conducted using the SYBR green (Bio-Rad Laboratories; Hercules, Calif.) method in a Lightcycler 480 (Roche Diagonostics; Indianapolis, Ind.). Raw data were analyzed with the online Qiagen RT2 PCR analysis program. […] A Caspase7 RT-PCR primer (PPH00110C-200, Qiagen) was obtained, and RT-PCR reactions were performed using the SYBR green method in a Lightcycler 480. The B2M gene (primer PPH01094E, Qiagen) was used for normalization.

[5] = system: ischemic AKI model in normal mongrel canines; assay type: in vivo, canine; conditions: after ischemia, 16.3 pmol/kg/min
Protocol: Ischemic Acute Kidney Injury in Canines: An ischemic AKI model in normal mongrel canines (male, 25-30 kg, n=5 per group) was created with high dose intravenous indomethacin infusion (10 mg/kg with NaHCO3[5 mg/kg] dissolved in 50 ml distilled water) followed by suprarenal ACC (Sandok et al., J Am Soc Nephrol, 196-202, 1992). Briefly, canines were anesthetized with intravenous pentobarbital (15-30 mg/kg) and fentanyl (4-12 μg/kg), intubated, and mechanically ventilated on air with supplemental oxygen, 3 L/minute, 12 cycles/minute (Harvard Apparatus; […], Mass.). The femoral and carotid arteries were accessed for mean arterial pressure (MAP) monitoring and blood sampling. The femoral vein was cannulated for continuous inulin infusion and saline/indomethacin/drug infusions. The left renal artery was attached with a probe for renal blood flow (RBF) measurement and a catheter was placed in the left ureter for passive urine collection. A flow-directed balloon-tipped thermodilution catheter was advanced to the pulmonary artery through the external jugular vein for measurement of cardiac filling pressures and cardiac output (CO). After a 60 minute equilibration, baseline (BL) characteristics were established. […] GFR values were calculated based on inulin clearance. Urinary sodium was measured with pHOx Ultra (Nova Biomedical; Waltham, Mass.).

Caspase7 gene = test: Caspase7 real time PCR in H/R HRPTC; assay type: cell-based, human; conditions: H/R with 10^−6 M CRRL269, H/R alone 1.89 fold, normalized to B2M
Protocol: as §1

[6] = system: AKI canine kidneys (renal cortex); test: Renal injury ex vivo analysis (H&E histology and TUNEL); assay type: in vivo; conditions: AKI canine kidney cortex, compared to vehicle
Protocol: Histology and TUNEL Analysis: Fixed renal tissues were embedded in paraffin. For histology analysis, paraffin-embedded slides in vehicle (n=5) and CRRL269 (n=5) were stained with hematoxylin and eosin (H&E). A renal pathologist who was blinded to the study examined the H&E stained slides. Renal morphologic injuries such as tubular dilation and vacuolization were evaluated. Renal cortical apoptosis in vehicle (n=5) and CRRL269 (n=5) treated dogs were assessed using a TUNEL assay (Promega; Madison, Wis.) followed the protocol provided by the manufacturer. […] DAPI (Vectashield, Vector Laboratories; Burlingame, Calif.) was used to label the nucleus. TUNEL results were analyzed by confocal fluorescence microscopy (Nikon A50R; Melville, N.Y.).

[7] = 16.3 pmol/kg/min infusion for 2 hours after ACC, vs vehicle
[8] = 16.3 pmol/kg/min, compared to vehicle
[9] = postischemia phases, 16.3 pmol/kg/min, vs vehicle
[10] = HRPTC, H/R, 10^−8, 10^−7 or 10^−6 M

Question: With CC[C@H](C)[C@@H]1NC(=O)[C@H](CCCNC(=N)N)NC(=O)[C@H](CC(=O)O)NC(=O)[C@H](CCSC)NC(=O)[C@H](CCCCN)NC(=O)[C@H](CCCNC(=N)N)NC(=O)CNC(=O)[C@H](Cc2ccccc2)NC(=O)[C@@H](NC(=O)[C@H](CO)NC(=O)[C@H](CO)NC(=O)[C@H](CCCNC(=N)N)NC(=O)[C@H](CCCNC(=N)N)NC(=O)[C@H](CC(C)C)NC(=O)[C@H](CO)NC(=O)[C@H](CCCNC(=N)N)NC(=O)[C@@H]2CCCN2C(=O)[C@H](C)NC(=O)[C@@H](N)[C@@H](C)O)CSSC[C@@H](C(=O)N[C@@H](CC(N)=O)C(=O)N[C@@H](CO)C(=O)N[C@@H](Cc2ccccc2)C(=O)N[C@@H](CCCNC(=N)N)C(=O)N[C@@H](Cc2ccc(O)cc2)C(=O)O)NC(=O)CNC(=O)[C@H](CC(C)C)NC(=O)CNC(=O)[C@H](CO)NC(=O)[C@H](CO)NC(=O)[C@H](CO)NC(=O)[C@H](CO)NC1=O [CRRL269] (H-TAPRSLRRSSCFGRKMDRISSSSGLGCNSFRY-OH; disulfide 11-27) as the compound, how does the “cortical NPPC gene expression levels (RT-PCR)” value ([1]; AKI canine renal cortex, normalized to GAPDH, vs vehicle) read?
Answer: elevated

Question: What about the “urinary CNP levels” value ([1]; AKI canines, 16.3 pmol/kg/min infusion, compared to vehicle) of the same compound?
Answer: increased

Question: And the “plasma cGMP levels” value [2, 7]?
Answer: increased

Question: And the “urinary cGMP levels” value [2, 7]?
Answer: increased

Question: And the “renal parenchyma cGMP levels” value ([2]; 16.3 pmol/kg/min infusion for 2 hours, ex vivo cortex and medulla)?
Answer: increased

Question: And the “urinary sodium excretion (UNaV), natriuresis” value [2, 8]?
Answer: significantly induced

Question: And the “urine output (UV), diuresis” value [2, 8]?
Answer: significantly induced

Question: What about the “plasma (circulating) ANGII levels” value ([2]; post-ischemia CL1 to CL4, 16.3 pmol/kg/min, vs vehicle) of the same compound?
Answer: significantly reduced

Question: And the “glomerular filtration rate (GFR)” value [2, 9]?
Answer: maintained

Question: And the “renal blood flow (RBF)” value [2, 9]?
Answer: maintained

Question: What about the “apoptotic signals in HRPTC after H/R” value ([3]; CRRL269, compared to H/R group alone) of the same compound?
Answer: significantly reduced

Question: What about the “anti-apoptotic effect compared to ANP” value [3, 10] of the same compound?
Answer: more robust anti-apototic effects compared to ANP

Question: What about the “anti-apoptotic effect in comparison with BNP” value [3, 10] of the same compound?
Answer: trend of superiority

Question: What about the “Caspase7 gene down-regulation in PCR array” value ([4]; 10^−6 M CRRL269) of the same compound?
Answer: at least two-fold

Question: What about the “number of apoptosis pathway genes down-regulated at least 2 fold” value ([4]; 10^−6 M CRRL269, 84-gene array) of the same compound?
Answer: 8 out of 84

Question: And the “pulmonary capillary wedge pressure (PCWP)” value [5]?
Answer: reduced

Question: And the “right atrial pressure (RAP)” value [5]?
Answer: reduced

Question: What about the “Caspase7 gene expression level (RT-PCR)” value (Caspase7 gene) of the same compound?
Answer: 1.25 fold

Question: What about the “renal cortex vacuolization (H&E staining)” value [6] of the same compound?
Answer: less vacuolization compared to vehicle

Question: And the “renal cortical apoptosis (TUNEL assay)” value [6]?
Answer: reduced apoptosis
